For four molecules, Activity and IC50 results are on record in ChEMBL document CHEMBL1158031, “Biscembranes from the soft coral Sarcophyton glaucum” (J Nat Prod, 2006).

Assay [1] deals with HL-60. The assay is described as follows: Cytotoxicity against human HL-60 upto 100 uM. It counts as functional, cell-based.
The subject of assay [2] is HL-60. The experiment in a line: Cytotoxicity against human HL-60. It counts as functional, cell-based.

Calls of active or inactive are those of the source. The rule behind the calls is not given here.

With `COC(=O)[C@]12CC(=O)[C@H](C(C)C)CC(=O)/C(C)=C/CC/C(C)=C/C(=O)[C@H]1CC(C)=C1C[C@H](O)[C@](C)(O)[C@H]3CC[C@@](C)(O)[C@H](CC/C(C)=C/[C@@H]12)O3`, the result with HL-60 [1] was inactive.
With `COC(=O)[C@]12CC(=O)[C@H](C(C)C)CC(=O)/C(C)=C/CC/C(C)=C/C(=O)[C@H]1CC(C)=C1C[C@H](OC(C)=O)[C@](C)(O)[C@H]3CC[C@@](C)(O)[C@H](CC/C(C)=C/[C@@H]12)O3`, in the assay on HL-60 [1], the result was inactive.
Take `COC(=O)[C@]12CC(=O)[C@H](C(C)C)CC(=O)/C(C)=C/CC/C(C)=C\C(=O)[C@H]1CC(C)=C1C[C@H](OC(C)=O)[C@](C)(O)[C@H]3CC[C@@](C)(O)[C@H](CC/C(C)=C/[C@@H]12)O3` [BISGLAUCUMLIDE C]: the IC50 in the assay on HL-60 [2] came out at 33.7 µM.
The same measure, in the same setting: with `COC(=O)[C@]12CC(=O)[C@H](C(C)C)CC(=O)/C(C)=C\CC/C(C)=C\C(=O)[C@H]1CC(C)=C1C[C@H](OC(C)=O)[C@](C)(O)[C@H]3CC[C@@](C)(O)[C@H](CC/C(C)=C/[C@@H]12)O3` [BISGLAUCUMLIDE D] the figure was 42.3 µM.

One may read the IC50 as the concentration that gives 50% inhibition. Lower therefore signals greater potency in that assay.
